From patent US7807181B2, “Neisseria mutants, lipooligosaccharides and immunogenic compositions” (Emory University, priority 2002, dated 2010)

Assays:
[1] = target: T1, CD14/TLR4-MD-2 receptor complex (Homo sapiens, UniProt O00206+Q9Y6Y9); experiment: Activation of receptor complex by synthetic KDO; format: cell-based; details: dose ranges from 10 ng-100 mg; data not shown
T1 construct: endogenous in cells
Description: Acid hydrolysis might affect lipid A phosphate head groups and contribute to attenuation.

[2] = system: Psf protein (arabinose 5-phosphate isomerase); experiment: Colorimetric assay for keto-pentoses with purified Psf protein; format: biochemical, N. meningitidis; details: 37° C., 10 min, 100 mM Tris-HCl pH 7.5, A540
Description: Psf is the arabinose 5-phosphate isomerase of N. meningitidis. […] To determine if Psf had isomerase activity, a colorimetric assay for keto-pentoses (Bigham et al., 1984) was first conducted using the purified Psf protein, which contained a C-terminal 6×His tag (FIG. 9A). […] The reaction was dependent on the concentration of Psf protein. […] The NMR chemical shifts of the phosphoryl groups of arabinose 5-P and ribulose 5-P are different, thus ^31P NMR can monitor the interconversion between the two sugars. […] The LOS defect in the psf mutant, but not the kdsB mutant, can be complemented by (exogenous) supplementation of arabinose in the growth medium (FIG. 9B), consistent with the identification of the Psf protein as an arabinose 5-phosphate isomerase.
The procedure of Dische and Borenfreund (Dische and Borenfreund, 1951, as modified by Bigham (Bigham, 1984) was used to determine the presence of ketopentoses. Briefly, enzyme was incubated at 37° C. for 10 min in the presence of various aldopentoses (ribose 5-phosphate, erythrose 4-phosphate, glucose 6-phosphate, and arabinose) and 100 mM Tris-HCl (pH 7.5) buffer and assayed as follows. A 250 μl aliquot of the reaction solution was quenched with the addition of 50 μl of a 1.5% cysteine solution followed immediately by 1.5 ml of concentrated H2S04. A 50 μl aliquot of 0.12% carbazole in 95% ethanol was then added, and the solution was heated at 37° C. for 30 min. The absorbance was read at 540 nm. As reported by Bigham et al. (1984), the conversion of 1 μmol of A5P to 1 μmol of Ru5P gave an ΔA of 8.2.

[3] = system: differentiated U937 and THP-1 human macrophage-like cells; experiment: Cytokine (TNFa, IL-1b, IL-8, IL-10) induction in macrophage-like cells stimulated with endotoxin; format: cell-based; details: 2 mg/ml added during the induction assay
Description: The meningococcal mutant LOS preparations were used to investigate the role of endotoxin structure on the activation of macrophages via the CD14/TLR4-MD-2 receptor complex. Endotoxins were quantified and standardized based on lipid A content. Cytokine (TNFa, IL-1b, IL-8 or IL-10) induction, nitric oxide and reactive oxygen species (ROS) release from differentiated U937 and THP-1 human macrophage-like cells or RAW264.7 murine macrophages stimulated with endotoxin (0.56 pmole/ml, approximately 1 ng/ml) was studied.
Alternatively, LOS from a genetically-defined mutants of the serogroup B N. meningitidis strain NMB (encapsulated, L2 immunotype) (listed in Table I) were initially extracted by the phenol-water method (21). Residual membrane phospholipids (unsaturated fatty acyl residues C18:0) were removed by repeated extraction of the dry LOS samples with 9:1 ethanol:water. The expected LOS fatty acyl components of 3-OHC12:0, 3-OHC14:0 and C12:0 and the absence of membrane phospholipids was assessed by Mass spectroscopy (GC-MS). LOS preparations were examined by SDS-PAGE (22), quantitated and standardized based on the number of lipid A molecules per sample (23). […] The resulting methyl b-trimethylsilylmyristate was identified and quantified by GC-MS analysis. […]

T1 sequence (O00206 24-839): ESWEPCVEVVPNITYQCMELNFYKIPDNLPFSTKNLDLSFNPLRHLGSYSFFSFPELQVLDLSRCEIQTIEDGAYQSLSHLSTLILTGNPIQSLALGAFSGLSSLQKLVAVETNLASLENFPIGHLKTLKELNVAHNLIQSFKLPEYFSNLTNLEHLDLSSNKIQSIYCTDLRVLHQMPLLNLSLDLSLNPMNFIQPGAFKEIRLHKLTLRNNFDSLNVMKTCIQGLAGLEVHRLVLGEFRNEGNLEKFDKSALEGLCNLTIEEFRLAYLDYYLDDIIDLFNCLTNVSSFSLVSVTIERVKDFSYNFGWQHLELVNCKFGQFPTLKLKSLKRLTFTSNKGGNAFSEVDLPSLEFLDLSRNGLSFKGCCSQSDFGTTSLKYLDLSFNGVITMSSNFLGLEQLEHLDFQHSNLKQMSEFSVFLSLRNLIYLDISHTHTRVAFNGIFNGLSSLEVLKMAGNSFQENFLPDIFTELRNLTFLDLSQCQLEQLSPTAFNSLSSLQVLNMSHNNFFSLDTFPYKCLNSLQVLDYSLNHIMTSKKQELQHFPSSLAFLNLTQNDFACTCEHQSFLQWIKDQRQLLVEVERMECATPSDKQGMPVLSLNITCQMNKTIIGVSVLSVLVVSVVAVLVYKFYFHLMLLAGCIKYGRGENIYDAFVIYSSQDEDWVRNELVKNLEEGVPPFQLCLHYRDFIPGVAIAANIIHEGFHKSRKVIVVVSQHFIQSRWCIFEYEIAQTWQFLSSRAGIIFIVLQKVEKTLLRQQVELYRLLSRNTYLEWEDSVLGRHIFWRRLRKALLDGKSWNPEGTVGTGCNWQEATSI
T1 sequence (Q9Y6Y9 19-160): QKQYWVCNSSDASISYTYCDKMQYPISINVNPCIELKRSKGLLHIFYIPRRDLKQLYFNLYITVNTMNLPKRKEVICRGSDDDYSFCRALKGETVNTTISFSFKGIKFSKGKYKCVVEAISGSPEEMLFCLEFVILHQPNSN

| Compound | substrate for the Psf protein [2] | also measured |
| --- | --- | --- |
| O=C(O)C(=O)CC(O)C(O)C(O)C(O)CO (stereo not drawn) [Synthetic KDO, 2-keto-3-deoxyoctonic acid] |  | activation of the CD14/TLR4-MD-2 receptor complex [1]: did not activate |
| O=C[C@@H](O)[C@H](O)[C@H](O)CO [arabinose] | did not serve as substrates |  |
| O=C[C@H](O)[C@H](O)COP(=O)(O)O [erythrose 4-phosphate] | did not serve as substrates |  |
| O=C[C@H](O)[C@@H](O)[C@H](O)[C@H](O)COP(=O)(O)O [glucose 6-phosphate] | did not serve as substrates |  |
| O=C[C@H](O)[C@H](O)[C@H](O)COP(=O)(O)O [ribose 5-phosphate] | did not serve as substrates |  |
| polymyxin B |  | effect on meningococcal LOS-induced cytokine release [3]: neutralized |
